Reference: the supplement of paper PMC11061612

Tests used:
[1] = system: SK-MES-1 (Squamous Cell Lung Carcinoma); test: Bliss excess, mean over the matrix (fraction); higher = more synergy
Method in brief: (§1)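 Bliss excess equals the observed combination effect minus the expected value EA + EB − EA·EB, where EA and EB are the effects of each agent alone. Combination Emax is the second-highest inhibition within the matrix. Inhibition was scaled from CellTiter-Glo 2.0 luminescence, with 0 set by vehicle wells and 1 by blank wells, after 72 hours of two-drug dosing of cells plated in 1536-well plates.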

[2] = system: PA-1 (Ovarian Carcinoma); test: as above
Method in brief: as §1

[3] = system: A498 (Kidney Carcinoma); test: as above
Method in brief: as §1

[4] = system: NCI-H1666 (Lung Adenocarcinoma); test: as above
Method in brief: as §1

[5] = system: U-2-OS (Osteosarcoma); test: as above
Method in brief: as §1

[6] = system: NY (Osteosarcoma); test: as above
Method in brief: as §1

[7] = system: A3-KAW (B-Cell Non-Hodgkin's Lymphoma); test: as above
Method in brief: as §1

[8] = system: SK-MG-1 (Low Grade Glioma); test: as above
Method in brief: as §1

[9] = system: COR-L311 (Small Cell Lung Carcinoma); test: as above
Method in brief: as §1

[10] = system: A549 (Lung Adenocarcinoma); test: as above
Method in brief: as §1

[11] = system: NCI-H1650 (Lung Adenocarcinoma); test: as above
Method in brief: as §1

[12] = system: BICR22 (Oral Cavity Carcinoma); test: as above
Method in brief: as §1

[13] = system: CAL-29 (Bladder Carcinoma); test: as above
Method in brief: as §1

[14] = system: CAS-1 (Glioblastoma); test: as above
Method in brief: as §1

[15] = system: COLO-320-HSR (Colorectal Carcinoma); test: as above
Method in brief: as §1

[16] = system: NCI-H1581 (Non-Small Cell Lung Carcinoma); test: as above
Method in brief: as §1

[17] = system: TT (Thyroid Gland Carcinoma); test: as above
Method in brief: as §1

[18] = system: FU97 (Gastric Carcinoma); test: combination Emax (second highest fraction inhibited in the dose matrix, 72 h); higher = more inhibition; extreme values may be limits of the assay
Method in brief: as §1

[19] = system: TT2609-C02 (Thyroid Gland Carcinoma); test: as above
Method in brief: as §1

[20] = system: HCC1954 (Breast Carcinoma); test: as above
Method in brief: as §1

SMILES | Bliss excess [1] | Bliss excess [2] | Bliss excess [3] | Bliss excess [4] | Bliss excess [5] | Bliss excess [6] | Bliss excess [7] | Bliss excess [8] | Bliss excess [9] | Bliss excess [10] | Bliss excess [11] | Bliss excess [12] | Bliss excess [13] | Bliss excess [14] | Bliss excess [15] | Bliss excess [16] | Bliss excess [17] | combination Emax [18] | combination Emax [19] | combination Emax [20]
CN(CCO)CC[C@H](CSc1ccccc1)Nc1ccc(S(=O)(=O)NC(=O)c2ccc(N3CCC([C@@H](O)c4ccccc4-c4ccc(Cl)cc4)CC3)cc2)cc1S(=O)(=O)C(F)(F)F [AZD4320] + C1CN(CCC1(C(=O)N[C@@H](CCO)C2=CC=C(C=C2)Cl)N)C3=NC=NC4=C3C=CN4 [Capivasertib] (first compound max 1 µM, 7x7, partner max 3 µM) | -0.0608 | 0.0592 | -0.0049 | -0.0491 | -0.0609 | -0.0277 | -0.0211 | -0.048 | 0.0397 | -0.0589 | -0.0427 | 0.0051 | -0.0397 | -0.078 | -0.0136 | -0.0143 | -0.0456 | 0.418 | 0.0697 | 0.902
CN(CCO)CC[C@H](CSc1ccccc1)Nc1ccc(S(=O)(=O)NC(=O)c2ccc(N3CCC([C@@H](O)c4ccccc4-c4ccc(Cl)cc4)CC3)cc2)cc1S(=O)(=O)C(F)(F)F [AZD4320] + C=CCn1c(=O)c2cnc(Nc3ccc(N4CCN(C)CC4)cc3)nc2n1-c1cccc(C(C)(C)O)n1 [AZD1775] (first compound max 1 µM, partner max 1 µM) | 0.0356 | 0.0773 | 0.0368 | -0.0717 | -0.0059 | 0.0694 | 0.0279 | 0.064 | -0.0091 | -0.0429 | -0.0096 | 0.0848 | 0.0124 | 0.0261 | -0.0268 | 0.059 | -0.0048 | 0.454 | 0.722 | 0.718
CN(CCO)CC[C@H](CSc1ccccc1)Nc1ccc(S(=O)(=O)NC(=O)c2ccc(N3CCC([C@@H](O)c4ccccc4-c4ccc(Cl)cc4)CC3)cc2)cc1S(=O)(=O)C(F)(F)F [AZD4320] + CCN(CCO)CCCOc1ccc2c(Nc3cc(CC(=O)Nc4cccc(F)c4)[nH]n3)ncnc2c1 [AZD2811] (first compound max 1 µM, 7x7, partner max 1 µM) | -0.0328 | 0.0664 | -0.0371 | -0.0283 | 0.0076 | -0.0182 | 0.0628 | 0.0981 | 0.0249 | -0.149 | -0.0164 | 0.0119 | 0.103 | 0.0208 | -0.0087 | 0.0584 | 0.0345 | 0.177 | 0.505 | 0.851
CN(CCO)CC[C@H](CSc1ccccc1)Nc1ccc(S(=O)(=O)NC(=O)c2ccc(N3CCC([C@@H](O)c4ccccc4-c4ccc(Cl)cc4)CC3)cc2)cc1S(=O)(=O)C(F)(F)F [AZD4320] + CN(C)CCCOc1ccc(-c2ccc3ncc4c(c3c2)n(C2CCOCC2)c(=O)n4C)cn1 [AZD0156] (first compound max 1 µM, 7x7, partner max 1 µM) | -0.005 | -0.0528 | -0.0358 | -0.0508 | -0.0215 | -0.0432 | -0.0197 | -0.0377 | 0.0177 | -0.039 | -0.0443 | -0.0364 | -0.0187 | -0.0328 | -0.0136 | 0.0018 | -0.0778 | 0.258 | 0.148 | 0.327
CN(CCO)CC[C@H](CSc1ccccc1)Nc1ccc(S(=O)(=O)NC(=O)c2ccc(N3CCC([C@@H](O)c4ccccc4-c4ccc(Cl)cc4)CC3)cc2)cc1S(=O)(=O)C(F)(F)F [AZD4320] + C[C@@H]1COCCN1C2=NC(=NC(=C2)C3(CC3)[S@](=N)(=O)C)C4=C5C=CNC5=NC=C4 [AZD6738] (first compound max 1 µM, 7x7, partner max 10 µM) | 0.0228 | 0.0242 | -0.157 | -0.0645 | -0.0394 | 0.0125 | -0.0229 | 0.0076 | -0.0005 | -0.0778 | 0.0045 | -0.0433 | 0.0426 | -0.0307 | 0.0161 | -0.0837 | -0.033 | 0.383 | 0.25 | 0.734
CN(CCO)CC[C@H](CSc1ccccc1)Nc1ccc(S(=O)(=O)NC(=O)c2ccc(N3CCC([C@@H](O)c4ccccc4-c4ccc(Cl)cc4)CC3)cc2)cc1S(=O)(=O)C(F)(F)F [AZD4320] + C[C@@H](Nc1cc(F)cc(F)c1)c1cc(C(=O)N(C)C)cc2c(=O)cc(N3CCOCC3)oc12 [AZD8186] (first compound max 1 µM, 7x7, partner max 3 µM) | 0.031 | 0.0411 | 0.0903 | 0.0153 | 0.007 | -0.005 | 0.0229 | -0.0189 | 0.0588 | -0.0964 | 0.0346 | -0.0108 | -0.0215 | -0.0831 | 0.0504 | 0.0052 | -0.061 | 0.507 | 0.294 | 0.546
CN(CCO)CC[C@H](CSc1ccccc1)Nc1ccc(S(=O)(=O)NC(=O)c2ccc(N3CCC([C@@H](O)c4ccccc4-c4ccc(Cl)cc4)CC3)cc2)cc1S(=O)(=O)C(F)(F)F [AZD4320] + Cc1cc2ncnn2cc1Nc1ncc2c(n1)n(C1CCOCC1)c(=O)n2C [AZD7648] (first compound max 1 µM, 7x7, partner max 10 µM) | -0.0632 | 0.0302 | -0.0393 | -0.0352 | -0.0294 | -0.018 | 0.0296 | -0.0239 | 0.0219 | -0.0263 | -0.0227 | -0.0054 | -0.0074 | -0.048 | -0.0099 | -0.0158 | -0.0694 | 0.32 | 0.182 | 0.48
CN(CCO)CC[C@H](CSc1ccccc1)Nc1ccc(S(=O)(=O)NC(=O)c2ccc(N3CCC([C@@H](O)c4ccccc4-c4ccc(Cl)cc4)CC3)cc2)cc1S(=O)(=O)C(F)(F)F [AZD4320] + Cn1cnc2c(F)c(Nc3ccc(Br)cc3Cl)c(C(=O)NOCCO)cc21 [Selumetinib] (first compound max 1 µM, 7x7, partner max 3 µM) | 0.0282 | 0.144 | 0.0329 | 0.0676 | 0.0351 | 0.0072 | 0.0747 | 0.102 | -0.0034 | 0.0226 | 0.0245 | -0.0468 | 0.0826 | -0.054 | 0.0102 | 0.0408 | -0.033 | 0.544 | 0.546 | 0.617
COc1nnc2ccc(N3CCC(c4ccc(OCCN5CCN(C)C(=O)[C@H]5C)cc4)CC3)nn12 [AZD5153] + C=CCn1c(=O)c2cnc(Nc3ccc(N4CCN(C)CC4)cc3)nc2n1-c1cccc(C(C)(C)O)n1 [AZD1775] (first compound max 1 µM, partner max 1 µM) | 0.0183 | -0.043 | 0.0142 | -0.0944 | -0.0304 | 0.0119 | -0.0093 | -0.0823 | -0.06 | -0.0902 | -0.015 | -0.0972 | -0.0699 | -0.0825 | -0.0801 | -0.0029 | -0.0629 | 0.792 | 0.622 | 0.306
COc1nnc2ccc(N3CCC(c4ccc(OCCN5CCN(C)C(=O)[C@H]5C)cc4)CC3)nn12 [AZD5153] + CC1(C)CCC(CN2CCN(c3ccc(C(=O)NS(=O)(=O)c4ccc(NCC5CCOCC5)c([N+](=O)[O-])c4)c(Oc4cnc5[nH]ccc5c4)c3)CC2)=C(c2ccc(Cl)cc2)C1 [Venetoclax] (first compound max 1 µM, 7x7, partner max 1 µM) | -0.0349 | -0.077 | -0.0895 | -0.0603 | -0.0424 | -0.0722 | -0.0095 | -0.0571 | 0.0389 | -0.0659 | -0.0349 | -0.0613 | -0.103 | -0.0621 | -0.0657 | -0.115 | -0.0116 | 0.754 | 0.376 | 0.152
COc1nnc2ccc(N3CCC(c4ccc(OCCN5CCN(C)C(=O)[C@H]5C)cc4)CC3)nn12 [AZD5153] + CCN(CCO)CCCOc1ccc2c(Nc3cc(CC(=O)Nc4cccc(F)c4)[nH]n3)ncnc2c1 [AZD2811] (first compound max 1 µM, 7x7, partner max 1 µM) | -0.0546 | 0.032 | -0.0453 | -0.0376 | -0.0044 | -0.0314 | 0.0269 | -0.0568 | -0.0357 | -0.0407 | -0.0868 | -0.118 | 0.0084 | -0.0797 | -0.0417 | -0.143 | -0.0755 | 0.766 | 0.492 | 0.263
COc1nnc2ccc(N3CCC(c4ccc(OCCN5CCN(C)C(=O)[C@H]5C)cc4)CC3)nn12 [AZD5153] + C[C@@H]1COCCN1C2=NC(=NC(=C2)C3(CC3)[S@](=N)(=O)C)C4=C5C=CNC5=NC=C4 [AZD6738] (first compound max 1 µM, 7x7, partner max 10 µM) | 0.0093 | -0.0502 | -0.0563 | -0.0271 | 0.0409 | -0.0188 | -0.006 | -0.0065 | -0.0501 | -0.0292 | 0.0238 | -0.116 | 0.0219 | 0.0116 | 0.0292 | 0.0013 | 0.0167 | 0.839 | 0.521 | 0.657
COc1nnc2ccc(N3CCC(c4ccc(OCCN5CCN(C)C(=O)[C@H]5C)cc4)CC3)nn12 [AZD5153] + Cc1c2c(nn1C)CSCc1cc(n(C)n1)CSc1cc(c3ccccc3c1)OCCCc1c(C(=O)O)n(C)c3c-2c(Cl)ccc13 [AZD5991] (first compound max 1 µM, 7x7, partner max 1 µM) | -0.0084 | 0.0109 | -0.0226 | -0.0538 | 0.0074 | -0.0656 | -0.0289 | -0.0383 | -0.0225 | -0.0918 | -0.0082 | -0.0013 | -0.0162 | -0.0333 | -0.112 | -0.0739 | -0.0291 | 0.95 | 0.454 | 0.956
